These results are taken from patent US12344597B2, “Alkoxy-substituted pyridinyl derivatives as LPA1 receptor antagonists and their use in the treatment of fibrosis” (IDORSIA PHARMACEUTICALS LTD, priority 2018, dated 2025).

For the assay, the target named is human LPA1 receptor (Homo sapiens (Human), UniProt Q92633). Nature of the assay: Beta-arrestin recruitment assay to determine IC50 values for human LPAR1. It counts as cell-based. Conditions: antagonist mode, Tango EDG2-bla U2OS cells, LPA 18:1 500 nM final. From the text:
Beta-Arrestin Recruitment Assay to Determine IC50 Values for Human LPAR1
The Tango™ EDG2-bla U2OS cells are obtained from Invitrogen. These cells contain the human LPA1 receptor cDNA linked to a TEV protease site and a Gal4-VP16 transcription factor integrated into the Tango™ GPCR-bla U2OS parental cell line. This parental cell line stably expresses a beta-arrestin/TEV protease fusion protein and the beta-lactamase (bla) reporter gene under the control of a UAS response element. Upon LPA (agonist) binding, LPA1 receptor gets activated, leading to arrestin-protease recruitment and proteolytic release of the transcription factor: The transcription factor then regulates transcription of a beta-lactamase reporter construct, which is measured upon addition of the live-cell substrate.
10′000 Tango™ EDG2-bla U2OS cells are seeded in a 384-well black with clear bottom plate in 30 μl Freestyle 293 Expression Medium (Invitrogen) and incubated for 20 h at 37° C., 5% CO2. […] IC50 is the concentration of antagonist inhibiting 50% of the maximal response.

Structures can show the parent of a compound that is named as a salt.

Chain of human LPA1 receptor (Q92633 whole entry): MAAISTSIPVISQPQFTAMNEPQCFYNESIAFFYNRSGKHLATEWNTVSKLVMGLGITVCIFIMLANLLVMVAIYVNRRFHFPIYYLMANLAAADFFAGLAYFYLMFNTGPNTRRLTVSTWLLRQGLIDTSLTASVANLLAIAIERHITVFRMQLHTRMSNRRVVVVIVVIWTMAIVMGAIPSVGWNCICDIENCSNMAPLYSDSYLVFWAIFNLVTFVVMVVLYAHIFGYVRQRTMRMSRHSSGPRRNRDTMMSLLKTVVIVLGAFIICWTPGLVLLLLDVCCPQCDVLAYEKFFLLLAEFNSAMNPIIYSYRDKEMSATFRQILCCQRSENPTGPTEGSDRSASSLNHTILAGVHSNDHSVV

Regarding “1-((3-((3-(difluoromethoxy)-5-methylpyridin-2-yl)carbamoyl)-3-(2-isopropylphenyl)azetidine-1-carbonyl)oxy)cyclopropane-1-carboxylic acid [Ex 83-3]”, the IC50 (in general, the concentration that gives 50% inhibition) is 0.076 µM.

“2-(2-(3-((2-(difluoromethoxy)-6-methylpyridin-3-yl)carbamoyl)-3-(2-isopropylphenyl)azetidin-1-yl)ethoxy)-2-methylpropanoic acid [Ex 40]”: 0.029 µM corresponded to half-maximal inhibition (IC50).

As to “5-(3-((2-(difluoromethoxy)-6-methylpyridin-3-yl)carbamoyl)-3-(2-isopropylphenyl)azetidin-1-yl)-2-methylpentan-2-yl acetate [Ex 11-65]”, the IC50 was 0.315 µM. `Cc1ccc(NC(=O)C2(c3ccccc3C(C)C)CNC2)c(OC(C)C)n1` [Ex 2, N-(2-isopropoxy-6-methylpyridin-3-yl)-3-(2-isopropylphenyl)azetidine-3-carboxamide] came in with an IC50 of 0.32 µM. This IC50 and that of the compound before are within 1.5-fold of each other.

`Cc1ccc(NC(=O)C2(c3ccccc3C(C)C)CCNCC2)c(OC(F)F)n1` [Ex 4, N-(2-(difluoromethoxy)-6-methylpyridin-3-yl)-4-(2-isopropylphenyl)piperidine-4-carboxamide] yielded an IC50 of 0.008 µM. The result for `Cc1ccc(NC(=O)C2(c3ccccc3C(C)C)CCN(C(=O)OC(C)(C)C)CC2)c(OC(F)F)n1` [Ex 4-1, tert-butyl 4-((2-(difluoromethoxy)-6-methylpyridin-3-yl)carbamoyl)-4-(2-isopropylphenyl)piperidine-1-carboxylate] reads 0.019 µM. The result for `COc1nc(Cl)ccc1NC(=O)C1(c2ccccc2C(C)C)CNC1` [Ex 5, N-(6-chloro-2-methoxypyridin-3-yl)-3-(2-isopropylphenyl)azetidine-3-carboxamide] reads 0.594 µM; that for `COc1ccc(NC(=O)C2(c3ccccc3C(C)C)CNC2)c(OC)n1` [Ex 6, N-(2,6-dimethoxypyridin-3-yl)-3-(2-isopropylphenyl)azetidine-3-carboxamide hydrochloride], 0.084 µM. In turn, `COc1ccc(NC(=O)C2(c3ccccc3C(C)C)CN(C(=O)OC(C)(C)C)C2)c(OC)n1` [Ex 6-1, tert-butyl 3-((2,6-dimethoxypyridin-3-yl)carbamoyl)-3-(2-isopropylphenyl)azetidine-1-carboxylate] came in with an IC50 of 0.605 µM. `CC(C)c1ccccc1C1(C(=O)Nc2cccnc2OC(F)F)CNC1` [Ex 7, N-(2-(difluoromethoxy)pyridin-3-yl)-3-(2-isopropylphenyl)azetidine-3-carboxamide hydrochloride] came in with an IC50 of 0.413 µM.

In turn, `CC(C)c1ccccc1C1(C(=O)Nc2cc(F)cnc2OC(F)F)CNC1` [Ex 8, N-(2-(difluoromethoxy)-5-fluoropyridin-3-yl)-3-(2-isopropylphenyl)azetidine-3-carboxamide] had an IC50 of 0.338 µM. With `Cc1ccc(NC(=O)C2(c3ccccc3C(C)C)CCNC2)c(OC(F)F)n1` (centres unmarked) [Ex 10, N-(2-(difluoromethoxy)-6-methylpyridin-3-yl)-3-(2-isopropylphenyl)pyrrolidine-3-carboxamide], the IC50 worked out at 0.007 µM. As for `Cc1ccc(NC(=O)C2(c3ccccc3C(C)C)CN(CCO)C2)c(OC(F)F)n1` [Ex 11-2, N-(2-(difluoromethoxy)-6-methylpyridin-3-yl)-1-(2-hydroxyethyl)-3-(2-isopropylphenyl)azetidine-3-carboxamide], the midpoint of inhibition, the IC50, lay at 0.005 µM.

In turn, `Cc1ccc(NC(=O)C2(c3ccccc3C(C)C)CCN(CCO)CC2)c(OC(F)F)n1` [Ex 11-3, N-(2-(difluoromethoxy)-6-methylpyridin-3-yl)-1-(2-hydroxyethyl)-4-(2-isopropylphenyl)piperidine-4-carboxamide] displayed an IC50 of 0.032 µM. In the case of `Cc1ccc(NC(=O)C2(c3ccccc3C(C)C)CN(CC3COC3)C2)c(OC(F)F)n1` [Ex 11-5, N-(2-(difluoromethoxy)-6-methylpyridin-3-yl)-3-(2-isopropylphenyl)-1-(oxetan-3-ylmethyl)azetidine-3-carboxamide], half-maximal inhibition (IC50) required 0.029 µM. The result for `Cc1ccc(NC(=O)C2(c3ccccc3C(C)C)CN(C#N)C2)c(OC(F)F)n1` [Ex 11-6, 1-cyano-N-(2-(difluoromethoxy)-6-methylpyridin-3-yl)-3-(2-isopropylphenyl)azetidine-3-carboxamide] reads 0.011 µM; that for `Cc1ccc(NC(=O)C2(c3ccccc3C(C)C)CN(Cc3nnn[nH]3)C2)c(OC(F)F)n1` [Ex 11-8, 1-((1H-tetrazol-5-yl)methyl)-N-(2-(difluoromethoxy)-6-methylpyridin-3-yl)-3-(2-isopropylphenyl)azetidine-3-carboxamide], 0.055 µM. The same measure for `Cc1ccc(NC(=O)C2(c3ccccc3C(C)C)CN(CCC(C)(C)O)C2)c(OC(F)F)n1` [Ex 11-9, N-(2-(difluoromethoxy)-6-methylpyridin-3-yl)-1-(3-hydroxy-3-methylbutyl)-3-(2-isopropylphenyl)azetidine-3-carboxamide]: 0.014 µM. `Cc1ccc(NC(=O)C2(c3ccccc3C(C)C)CN(CCC3(O)CC3)C2)c(OC(F)F)n1` [Ex 11-10, N-(2-(difluoromethoxy)-6-methylpyridin-3-yl)-1-(2-(1-hydroxycyclopropyl)ethyl)-3-(2-isopropylphenyl)azetidine-3-carboxamide] showed an IC50 of 0.012 µM. For `Cc1ccc(NC(=O)C2(c3ccccc3C(C)C)CN(CC(C)N)C2)c(OC(F)F)n1` (centres unmarked) [Ex 11-11, 1-(2-aminopropyl)-N-(2-(difluoromethoxy)-6-methylpyridin-3-yl)-3-(2-isopropylphenyl)azetidine-3-carboxamide], the IC50 came to 0.005 µM. In turn, `Cc1ccc(NC(=O)C2(c3ccccc3C(C)C)CN(CC(=O)O)C2)c(OC(F)F)n1` [Ex 11-12, 2-(3-((2-(difluoromethoxy)-6-methylpyridin-3-yl)carbamoyl)-3-(2-isopropylphenyl)azetidin-1-yl)acetic acid] returned an IC50 of 0.022 µM.

In the case of `CCOC(=O)CCN1CC(C(=O)Nc2ccc(C)nc2OC(F)F)(c2ccccc2C(C)C)C1` [Ex 11-13, ethyl 3-(3-((2-(difluoromethoxy)-6-methylpyridin-3-yl)carbamoyl)-3-(2-isopropylphenyl)azetidin-1-yl)propanoate], the IC50 amounted to 0.016 µM. Turning to `Cc1ccc(NC(=O)C2(c3ccccc3C(C)C)CN(CC(N)=O)C2)c(OC(F)F)n1` [Ex 11-15, 1-(2-amino-2-oxoethyl)-N-(2-(difluoromethoxy)-6-methylpyridin-3-yl)-3-(2-isopropylphenyl)azetidine-3-carboxamide], the midpoint of inhibition, the IC50, lay at 0.022 µM. This IC50 and that of the compound before are within 1.5-fold of each other. Take `Cc1ccc(NC(=O)C2(c3ccccc3C(C)C)CN(CC(C)(C)CO)C2)c(OC(F)F)n1` [Ex 11-17, N-(2-(difluoromethoxy)-6-methylpyridin-3-yl)-1-(3-hydroxy-2,2-dimethylpropyl)-3-(2-isopropylphenyl)azetidine-3-carboxamide]: the IC50 was found to be 0.048 µM. Compared with the last compound, the IC50 is about 2.2-fold higher. For the compound `Cc1ccc(NC(=O)C2(c3ccccc3C(C)C)CCN(C[C@@H](O)CO)CC2)c(OC(F)F)n1` [Ex 11-19, (R)-N-(2-(difluoromethoxy)-6-methylpyridin-3-yl)-1-(2,3-dihydroxypropyl)-4-(2-isopropylphenyl)piperidine-4-carboxamide], the IC50 is 0.014 µM.

`Cc1ccc(NC(=O)C2(c3ccccc3C(C)C)CN(C3COC3)C2)c(OC(F)F)n1` [Ex 11-20, N-(2-(difluoromethoxy)-6-methylpyridin-3-yl)-3-(2-isopropylphenyl)-1-(oxetan-3-yl)azetidine-3-carboxamide] showed an IC50 of 0.006 µM. The compound `Cc1ccc(NC(=O)C2(c3ccccc3C(C)C)CN(Cc3coc(C)n3)C2)c(OC(F)F)n1` [Ex 11-21, N-(2-(difluoromethoxy)-6-methylpyridin-3-yl)-3-(2-isopropylphenyl)-1-((2-methyloxazol-4-yl)methyl)azetidine-3-carboxamide] gave an IC50 of 0.06 µM. The result for `Cc1ccc(NC(=O)C2(c3ccccc3C(C)C)CN(Cc3ccnn3C)C2)c(OC(F)F)n1` [Ex 11-22, N-(2-(difluoromethoxy)-6-methylpyridin-3-yl)-3-(2-isopropylphenyl)-1-((1-methyl-1H-pyrazol-5-yl)methyl)azetidine-3-carboxamide] reads 0.108 µM; that for `Cc1ccc(NC(=O)C2(c3ccccc3C(C)C)CN(Cc3cnn(C)c3)C2)c(OC(F)F)n1` [Ex 11-23, N-(2-(difluoromethoxy)-6-methylpyridin-3-yl)-3-(2-isopropylphenyl)-1-((1-methyl-1H-pyrazol-4-yl)methyl)azetidine-3-carboxamide], 0.775 µM. On to `COC(=O)C(C)(C)CN1CC(C(=O)Nc2ccc(C)nc2OC(F)F)(c2ccccc2C(C)C)C1` [Ex 11-24, methyl 3-(3-((2-(difluoromethoxy)-6-methylpyridin-3-yl)carbamoyl)-3-(2-isopropylphenyl)azetidin-1-yl)-2,2-dimethylpropanoate], for which it took 0.28 µM to reach half-maximal inhibition (IC50). Against the preceding compound, the IC50 is about 2.8-fold lower. With `Cc1ccc(NC(=O)C2(c3ccccc3C(C)C)CN(CC(C)(C)C(=O)O)C2)c(OC(F)F)n1` [Ex 11-25, 3-(3-((2-(difluoromethoxy)-6-methylpyridin-3-yl)carbamoyl)-3-(2-isopropylphenyl)azetidin-1-yl)-2,2-dimethylpropanoic acid], the IC50 was 0.02 µM. Turning to `COC(=O)C1(CN2CC(C(=O)Nc3ccc(C)nc3OC(F)F)(c3ccccc3C(C)C)C2)CC1` [Ex 11-26, methyl 1-((3-((2-(difluoromethoxy)-6-methylpyridin-3-yl)carbamoyl)-3-(2-isopropylphenyl)azetidin-1-yl)methyl)cyclopropane-1-carboxylate], 0.4 µM corresponded to half-maximal inhibition (IC50).
